Measured values: the supplement of paper PMC10307832

Key:
Experiment in all cases: relative viability (nuclei count vs DMSO), 5 days (fraction); higher = more cells survive
201T = tested on: 201T
Method in brief: (§1)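 Nuclei were stained with Hoechst during a one-step fixation (final 0.05% Triton X-100, 1% formaldehyde, 1 ug/ml Hoechst) carried out 5 days after dosing, then counted on 4× images. The cells, lung cancer lines in 1536-well plates, had been dosed by pin tool the day after seeding with one drug alone or a fixed anchor-drug dose plus five library-drug doses (not always all listed) in √10 steps. Relative viability is the nuclei count in treated wells divided by that in vehicle wells, and each value is the median of duplicate plates.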

BEN = tested on: BEN
Method in brief: as §1

COR-L 105 = tested on: COR-L 105
Method in brief: as §1

EKVX = tested on: EKVX
Method in brief: as §1

EPLC-272H = tested on: EPLC-272H
Method in brief: as §1

H3255 = tested on: H3255
Method in brief: as §1

HCC-44 = tested on: HCC-44
Method in brief: as §1

HCC-827 = tested on: HCC-827
Method in brief: as §1

LCLC-97TM1 = tested on: LCLC-97TM1
Method in brief: as §1

LOU-NH91 = tested on: LOU-NH91
Method in brief: as §1

LU99A = tested on: LU99A
Method in brief: as §1

NCI-H1437 = tested on: NCI-H1437
Method in brief: as §1

NCI-H1666 = tested on: NCI-H1666
Method in brief: as §1

NCI-H1975 = tested on: NCI-H1975
Method in brief: as §1

NCI-H2085 = tested on: NCI-H2085
Method in brief: as §1

NCI-H2087 = tested on: NCI-H2087
Method in brief: as §1

NCI-H2170 = tested on: NCI-H2170
Method in brief: as §1

NCI-H2342 = tested on: NCI-H2342
Method in brief: as §1

NCI-H647 = tested on: NCI-H647
Method in brief: as §1

NCI-H650 = tested on: NCI-H650
Method in brief: as §1

PC-3 [JPC-3] = tested on: PC-3 [JPC-3]
Method in brief: as §1

SW 1573 = tested on: SW 1573
Method in brief: as §1

Work on Nc1ccn([C@@H]2O[C@H](CO)[C@@H](O)[C@@H]2O)c(=O)n1 [Cytarabine] + O=C(CCCCCCC(=O)Nc1ccccc1)NO [Vorinostat] (partner 1 µM) yielded a relative viability (201T; first compound 0.005 µM) of 0.978, a relative viability (201T; first compound 0.01581 µM) of 1.03 and a relative viability (201T; first compound 0.05 µM) of 1. It also gave a relative viability (201T; first compound 0.1581 µM) of 0.994, a relative viability (201T; first compound 0.5 µM) of 0.937 and a relative viability (BEN; first compound 0.005 µM) of 0.553. The relative viability (BEN; first compound 0.01581 µM) was 0.56, the relative viability (BEN; first compound 0.05 µM) was 0.447 and the relative viability (BEN; first compound 0.1581 µM) was 0.394. The relative viability (BEN; first compound 0.5 µM) was 0.364, the relative viability (COR-L 105; first compound 0.005 µM) was 0.816 and the relative viability (COR-L 105; first compound 0.01581 µM) was 0.79. It also gave a relative viability (COR-L 105; first compound 0.05 µM) of 0.55, a relative viability (COR-L 105; first compound 0.1581 µM) of 0.583 and a relative viability (COR-L 105; first compound 0.5 µM) of 0.418. The relative viability (EKVX; first compound 0.005 µM) was 0.706, the relative viability (EKVX; first compound 0.01581 µM) was 0.7 and the relative viability (EKVX; first compound 0.05 µM) was 0.636. It also gave a relative viability (EKVX; first compound 0.1581 µM) of 0.494, a relative viability (EKVX; first compound 0.5 µM) of 0.414 and a relative viability (EPLC-272H; first compound 0.005 µM) of 0.461. For the same molecule, the relative viability (EPLC-272H; first compound 0.01581 µM) was 0.393, the relative viability (EPLC-272H; first compound 0.05 µM) was 0.398 and the relative viability (EPLC-272H; first compound 0.1581 µM) was 0.174. It also gave a relative viability (EPLC-272H; first compound 0.5 µM) of 0.155, a relative viability (H3255; first compound 0.005 µM) of 0.862 and a relative viability (H3255; first compound 0.01581 µM) of 0.853. It also gave a relative viability (H3255; first compound 0.05 µM) of 0.655, a relative viability (H3255; first compound 0.1581 µM) of 0.608 and a relative viability (H3255; first compound 0.5 µM) of 0.878. For the same molecule, the relative viability (HCC-44; first compound 0.005 µM) was 1.2, the relative viability (HCC-44; first compound 0.01581 µM) was 1.09 and the relative viability (HCC-44; first compound 0.05 µM) was 1.08. For the same molecule, the relative viability (HCC-44; first compound 0.1581 µM) was 0.973, the relative viability (HCC-44; first compound 0.5 µM) was 0.948 and the relative viability (HCC-827; first compound 0.005 µM) was 0.539. It also gave a relative viability (HCC-827; first compound 0.01581 µM) of 0.331, a relative viability (HCC-827; first compound 0.05 µM) of 0.169 and a relative viability (HCC-827; first compound 0.1581 µM) of 0.145. The relative viability (HCC-827; first compound 0.5 µM) was 0.141, the relative viability (LCLC-97TM1; first compound 0.005 µM) was 0.752 and the relative viability (LCLC-97TM1; first compound 0.01581 µM) was 0.562. For the same molecule, the relative viability (LCLC-97TM1; first compound 0.05 µM) was 0.166, the relative viability (LCLC-97TM1; first compound 0.1581 µM) was 0.275 and the relative viability (LCLC-97TM1; first compound 0.5 µM) was 0.102. The relative viability (LOU-NH91; first compound 0.005 µM) was 0.857, the relative viability (LOU-NH91; first compound 0.01581 µM) was 0.917 and the relative viability (LOU-NH91; first compound 0.05 µM) was 0.806. For the same molecule, the relative viability (LOU-NH91; first compound 0.1581 µM) was 0.772, the relative viability (LOU-NH91; first compound 0.5 µM) was 0.676 and the relative viability (LU99A; first compound 0.005 µM) was 0.451. It also gave a relative viability (LU99A; first compound 0.01581 µM) of 0.468, a relative viability (LU99A; first compound 0.05 µM) of 0.554 and a relative viability (LU99A; first compound 0.1581 µM) of 0.455. For the same molecule, the relative viability (LU99A; first compound 0.5 µM) was 0.375, the relative viability (NCI-H1437; first compound 0.005 µM) was 0.889 and the relative viability (NCI-H1437; first compound 0.01581 µM) was 0.77. It also gave a relative viability (NCI-H1437; first compound 0.05 µM) of 0.605, a relative viability (NCI-H1437; first compound 0.1581 µM) of 0.423 and a relative viability (NCI-H1437; first compound 0.5 µM) of 0.303. For the same molecule, the relative viability (NCI-H1666; first compound 0.005 µM) was 0.948, the relative viability (NCI-H1666; first compound 0.01581 µM) was 0.843 and the relative viability (NCI-H1666; first compound 0.05 µM) was 0.768. For the same molecule, the relative viability (NCI-H1666; first compound 0.1581 µM) was 0.733, the relative viability (NCI-H1666; first compound 0.5 µM) was 0.619 and the relative viability (NCI-H1975; first compound 0.005 µM) was 0.572. The relative viability (NCI-H1975; first compound 0.01581 µM) was 0.675, the relative viability (NCI-H1975; first compound 0.05 µM) was 0.568 and the relative viability (NCI-H1975; first compound 0.1581 µM) was 0.429. It also gave a relative viability (NCI-H1975; first compound 0.5 µM) of 0.287, a relative viability (NCI-H2085; first compound 0.005 µM) of 0.698 and a relative viability (NCI-H2085; first compound 0.01581 µM) of 0.79. For the same molecule, the relative viability (NCI-H2085; first compound 0.05 µM) was 0.744, the relative viability (NCI-H2085; first compound 0.1581 µM) was 0.618 and the relative viability (NCI-H2085; first compound 0.5 µM) was 0.635. The relative viability (NCI-H2087; first compound 0.005 µM) was 0.416, the relative viability (NCI-H2087; first compound 0.01581 µM) was 0.961 and the relative viability (NCI-H2087; first compound 0.05 µM) was 0.598. For the same molecule, the relative viability (NCI-H2087; first compound 0.1581 µM) was 0.288, the relative viability (NCI-H2087; first compound 0.5 µM) was 0.308 and the relative viability (NCI-H2170; first compound 0.005 µM) was 0.823. The relative viability (NCI-H2170; first compound 0.01581 µM) was 0.65, the relative viability (NCI-H2170; first compound 0.05 µM) was 0.621 and the relative viability (NCI-H2170; first compound 0.1581 µM) was 0.4. It also gave a relative viability (NCI-H2170; first compound 0.5 µM) of 0.314, a relative viability (NCI-H2342; first compound 0.005 µM) of 0.718 and a relative viability (NCI-H2342; first compound 0.01581 µM) of 0.698. The relative viability (NCI-H2342; first compound 0.05 µM) was 0.657, the relative viability (NCI-H2342; first compound 0.1581 µM) was 0.52 and the relative viability (NCI-H2342; first compound 0.5 µM) was 0.465. The relative viability (NCI-H647; first compound 0.005 µM) was 0.284, the relative viability (NCI-H647; first compound 0.01581 µM) was 0.294 and the relative viability (NCI-H647; first compound 0.05 µM) was 0.149. It also gave a relative viability (NCI-H647; first compound 0.1581 µM) of 0.0878, a relative viability (NCI-H647; first compound 0.5 µM) of 0.0778 and a relative viability (NCI-H650; first compound 0.005 µM) of 0.417. It also gave a relative viability (NCI-H650; first compound 0.01581 µM) of 0.315, a relative viability (NCI-H650; first compound 0.05 µM) of 0.212 and a relative viability (NCI-H650; first compound 0.1581 µM) of 0.136. It also gave a relative viability (NCI-H650; first compound 0.5 µM) of 0.112, a relative viability (PC-3 [JPC-3]; first compound 0.005 µM) of 0.78 and a relative viability (PC-3 [JPC-3]; first compound 0.01581 µM) of 0.775. The relative viability (PC-3 [JPC-3]; first compound 0.05 µM) was 0.546, the relative viability (PC-3 [JPC-3]; first compound 0.1581 µM) was 0.466 and the relative viability (PC-3 [JPC-3]; first compound 0.5 µM) was 0.592. It also gave a relative viability (SW 1573; first compound 0.005 µM) of 0.606, a relative viability (SW 1573; first compound 0.01581 µM) of 0.552 and a relative viability (SW 1573; first compound 0.05 µM) of 0.677. For the same molecule, the relative viability (SW 1573; first compound 0.1581 µM) was 0.225 and the relative viability (SW 1573; first compound 0.5 µM) was 0.15.
